Reference: patent US20120283280A1, “IMIDAZOTETRAZINONE-BASED COMBI-MOLECULES” (priority 2011, published 2012)
Entries after “also recorded” stand apart in the source; their conditions may differ.

Experiments:
[1] = Dose finding and comparative toxicity study in mice; type: in vivo; design: key to Vital Sign, Day 8 / Vital Sign, Day 10 / Vital Sign, Day 16 / Vital Sign, Day 1 / Vital Sign, Day 3 / Vital Sign, Day 6: Normal (i.e. No sign of Toxicity); BCS = 2: BCS (Body Condition Score) = 2 indicates that mice are underconditioned (observable signs include segmentation of the vertebral column, palpability of the dorsal pelvic bones); conditions: for Vital Sign, Day 1 / Vital Sign, Day 3 / Vital Sign, Day 6 / Vital Sign, Day 8 / Vital Sign, Day 10 / Vital Sign, Day 16: CD-1 mice (n = 6), 100 mg/kg once every other day
Excerpt: The results are further illustrated hereinbelow in Table 4.

DU145 cell line = test: Mouse xenograft study (DU145); conditions: DU145 xenograft, 100 mg/kg i.p. every other day, 31 days after treatment
EGFR tyrosine kinase = target: T1, EGFR tyrosine kinase (Homo sapiens, UniProt P00533); test: EGFR kinase enzyme assay (ELISA, PGT phosphorylation); type: biochemical
T1 construct: purchased
T1 sequence (P00533 25-1210): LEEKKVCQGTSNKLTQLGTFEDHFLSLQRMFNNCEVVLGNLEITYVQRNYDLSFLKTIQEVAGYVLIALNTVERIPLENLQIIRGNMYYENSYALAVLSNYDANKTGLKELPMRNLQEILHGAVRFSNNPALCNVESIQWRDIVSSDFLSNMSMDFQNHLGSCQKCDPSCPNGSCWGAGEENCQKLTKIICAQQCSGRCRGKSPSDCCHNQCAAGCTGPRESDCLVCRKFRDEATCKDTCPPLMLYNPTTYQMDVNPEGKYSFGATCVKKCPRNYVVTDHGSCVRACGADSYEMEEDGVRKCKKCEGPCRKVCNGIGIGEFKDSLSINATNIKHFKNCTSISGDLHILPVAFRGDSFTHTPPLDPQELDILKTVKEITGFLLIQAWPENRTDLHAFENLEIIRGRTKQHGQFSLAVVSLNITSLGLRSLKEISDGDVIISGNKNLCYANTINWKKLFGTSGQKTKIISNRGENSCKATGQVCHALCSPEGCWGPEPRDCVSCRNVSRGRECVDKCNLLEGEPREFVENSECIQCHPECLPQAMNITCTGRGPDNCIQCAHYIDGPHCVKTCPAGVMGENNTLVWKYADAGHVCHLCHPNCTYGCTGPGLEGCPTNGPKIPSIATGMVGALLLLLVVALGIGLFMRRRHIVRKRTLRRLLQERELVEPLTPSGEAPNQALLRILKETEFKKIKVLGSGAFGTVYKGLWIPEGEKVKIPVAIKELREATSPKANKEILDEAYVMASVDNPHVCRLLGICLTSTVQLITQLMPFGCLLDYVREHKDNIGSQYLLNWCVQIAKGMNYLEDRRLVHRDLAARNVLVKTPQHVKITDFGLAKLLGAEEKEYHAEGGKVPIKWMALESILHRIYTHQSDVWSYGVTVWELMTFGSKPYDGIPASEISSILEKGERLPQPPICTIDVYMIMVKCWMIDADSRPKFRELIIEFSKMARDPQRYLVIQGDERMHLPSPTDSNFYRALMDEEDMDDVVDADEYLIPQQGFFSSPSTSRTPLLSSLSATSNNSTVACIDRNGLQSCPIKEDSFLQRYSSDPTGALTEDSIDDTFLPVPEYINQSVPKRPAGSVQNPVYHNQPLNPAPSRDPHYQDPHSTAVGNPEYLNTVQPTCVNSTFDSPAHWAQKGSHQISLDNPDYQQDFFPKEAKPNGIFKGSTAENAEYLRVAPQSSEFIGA
Experimental: EGFR Kinase Enzyme Assay: The EGFR kinase assay was performed following a known procedure. Briefly, Nunc MaxiSorp (Nalge Nunc International, Rochester, N.Y., USA) 96-well plates were incubated overnight at 37° C. with 100 μL/well of […] poly(L-glutamic acid-L-tyrosine, 4:1) PGT in PBS. Excess PGT was removed and the plates were washed three times with wash buffer (0.1% Tween-20 in PBS). The kinase reaction was performed using commercially available isolated EGFR (4.5 ng/well). The compound was added and phosphorylation was initiated by the addition of 20 μL/well of ATP (50 μM). After 8 min at room temperature with constant shaking, the reaction was terminated by aspiration of the reaction mixture and rinsing of the plates (four times) with wash buffer. Phosphorylated PGT was detected following a 25 min incubation with 50 μL/well of horseradish peroxidase-conjugated PY20 anti-phosphotyrosine antibody (Santa Cruz Biotechnology, Santa Cruz, Calif., USA) diluted to […] in blocking buffer (3% bovine serum albumin and 0.05% Tween-20 in PBS). The antibody was removed by aspiration and the plates washed four times with wash buffer. The signals were developed by the addition of 50 μL/well of 3,3′,5,5′-tetramethylbenzidine peroxidase substrate (Kirkegaard and Perry Laboratories, Gaithersberg, Md., USA). Following blue color development, H2SO4 (50 μL; 0.09 M) was added per well to stop the reaction. The plates were read at 450 nm using a Bio-Rad ELISA reader (model 2550; Bio-Rad, Hercules, Calif., USA).
Inhibition of EGFR TK: The EGFR TK inhibitory activity of JDF12 and its metabolite JDF04R was tested in a short 8 minute exposure to an ELISA assay. The assay was based on the inhibition of phosphorylation of poly(L-glutamic acid-L-tyrosine, 4:1) (PGT) by EGFR tyrosine kinase. […] As expected, the EGFR TK-inhibitory activity of MTZ was negligible (FIG. 1).

[2] = target: T2, EGFR autophosphorylation in DU145 cells (Homo sapiens, UniProt P00533); test: EGFR phosphorylation assay, whole cell (Western blot); type: cell-based; conditions: DU145 cells, at concentrations as low as 6 μM
T2 construct: endogenous in cells; host or cells: DU145
T2 sequence (P00533 25-1210): as above
Experimental: EGFR Phosphorylation Assay: DU145 cells (1×10^6) were preincubated in a six-well plate using 10% serum at 37° C. over a period of 24 h followed by a starving period of 24 h. The cells where then exposed to a dose range of each drug over a period of 2 h and subsequently treated with 50 ng/ml of EGF for 20 min at 37° C. The cells were washed with PBS and resuspended in cold lysis buffer [50 mmol/L Tris-HCl (pH 7.5), 150 mmol/L NaCl, 1% NP40, 1 mmol/L EDTA, 5 mmol/L NaF, 1 mmol/L Na3VO4, protease inhibitor tablet (Roche Biochemicals, Laval, Quebec, Canada)]. The lysates were kept on ice for 30 min and collected by centrifugation at 10,000 rpm for 20 min at 4° C. The concentrations of protein were determined using the Bio-Rad protein assay kit (Bio-Rad Laboratories, Hercules, Calif.). Equal amounts of protein […] were subjected to a 10% SDS-polyacrylamide gel electrophoresis (SDS-PAGE) and transferred to a polyvinylidene difluoride membrane (Millipore, Bedford, Mass.). Nonspecific binding on the membrane was minimized with a blocking buffer containing bovine serum albumin (5%) in PBS-Tween 20. The membranes were subsequently incubated with primary anti-phosphotyrosine antibody (Upstate Biotechnology, Lake Placid, N.Y.) for the detection of phosphotyrosine. The membranes were stripped and reprobed with anti-EGFR (Neomarkers, Fremont, Calif.) for determination of corresponding receptor levels. Blots were incubated with horseradish peroxidase-goat anti-mouse antibody (1:1,000 dilution; Cell Signaling Research, Beverly, Mass.), and the bands visualized with an enhanced chemiluminescence system (Amersham Pharmacia Biotech,. Little Chalfont, UK). Band intensities were measured using the SynGene GeneTools software package.
Inhibition of EGFR TK in Whole Cell Assay: DU145 cells were starved for 24 h and stimulated with EGF in the presence of the different drugs over a period of 2 h. Inhibition of autophosphorylation of EGFR was analyzed by Western blotting. The observed order of potency from this whole cell assay paralleled the one previously observed with ELISA. […]

DU145 cells = test: Alkaline comet assay for quantization of DNA damage; type: cell-based, human
Experimental: Alkaline Comet Assay for Quantization of DNA Damage: A modified alkaline comet assay technique was used for quantization of DNA damage induced in DU145 cells. The cells were exposed to a dose range of the drugs (JDF12, JDF04R, or MTZ) over a period of 2 h and harvested with trypsin-EDTA. The cells were subsequently collected by centrifugation and resuspended in PBS. The resulting cell suspensions were diluted to 3×10^5 cell/mL and mixed with agarose (0.75%) in PBS at 37° C. in a 1:9 dilution. The gels were cast on Gelband strips (Mandel Scientific, Guelph, Ontario, Canada) using gel casting chambers and then immediately placed into a lysis buffer (2.5 M NaCl, 0.1 M tetrasodium EDTA, 10 mM Trisbase, 1% (v/v) N-lauryl sarcosine, 10% (v/v) DMSO, and 1% (v/v) Triton X-100). After being kept overnight at 4° C., the gels were gently rinsed with distilled water and immersed in a second lysis buffer (2.5 M NaCl, 0.1 M tetrasodium EDTA, 10 mM Tris base) containing 1 mg/mL proteinase K for 60 min at 37° C. The cells were subsequently rinsed with distilled water, incubated in alkaline electrophoresis buffer for 30 min at 37° C. and electrophoresed at 400 mA for 20 min. The gels were then rinsed with distilled water and placed into 1 M ammonium acetate for 30 min. The gels were subsequently soaked in 100% ethanol for 2 h, dried overnight and stained with SYBR Gold (1:10000 dilution of stock supplied by Molecular Probes, Eugene, Oreg.) for 20 min. Comets were visualized at 330× magnification and DNA damage was assessed using the tail moment parameter (i.e. the distance between the barycenter of the head and the tail of the comet multiplied by the percentage DNA in the tail region). A minimum of 50 cell comets were analyzed for each sample, using Comet Assay χ v4.2 image analysis software, and the values presented as average tail moments for the entire cell population.
The reactive nature of the latter species makes its detection very difficult. However, the induction of DNA damage (i.e. DNA alkylation) represents evidence of its formation and fleeting presence.

DU145 = test: Growth inhibition assay (SRB), DU145; conditions: Homo sapiens, DU-145, 144 h, read-out: IC50 (x ± SD)
Experimental: (§1) Cell Culture: The human prostate cancer cell line DU145 was obtained from the American Type Culture Collection (Manassas, Va.)). The androgen-sensitive prostate cancer cell lines LNCaP-FGC, LNCaP-EGFR and LNCaP-erbB2 (stably transfected with EGFR erbB2 gene respectively) were generous gifts from Dr. Moulay Aloui-Jamali (Jewish General Hospital, Montreal, Quebec, Canada). […] The cultures were maintained in logarithmic growth by harvesting with a trypsin-EDTA solution containing 0.5 mg/mL trypsin and 0.2 mg/mL EDTA and replating before confluence. In all assays, the cells were plated over a period of time ranging from 24-48 h prior to drug administration.

LNCaP-WT = test: Growth inhibition assay (SRB), LNCaP-WT; conditions: 144 h, read-out: IC50 (x ± SD)
Experimental: as §1

LNCaP-EGFR = test: Growth inhibition assay (SRB), LNCaP-EGFR; conditions: 144 h, read-out: IC50 (x ± SD)
Experimental: as §1

LNCaP-ErbB2 = test: Growth inhibition assay (SRB), LNCaP-ErbB2; conditions: 144 h, read-out: IC50 (x ± SD)
Experimental: as §1

[3] = listed as Mitozolomide, 100 mg/kg

Compound: COc1cc2ncnc(Nc3ccc(F)c(Cl)c3)c2cc1OCCCN1CCOCC1 [Iressa]
- Vital Sign, Day 1 [1]: Normal
- Vital Sign, Day 3 [1]: Normal
- Vital Sign, Day 6 [1]: Normal
- Vital Sign, Day 8 [1]: Normal
- Vital Sign, Day 10 [1]: Normal
- Vital Sign, Day 16 [1]: Normal
- toxicity at 100 mg/kg ([1]; CD-1 mice, 100 mg/kg): no signs of toxicity
- antitumor activity (DU145 cell line): did not show significant antitumor activity

Compound: Nc1[nH]cnc1C(=O)Nc1ccc2ncnc(Nc3cccc(Cl)c3)c2c1 [JDF04R]
- IC50 (EGFR tyrosine kinase; ELISA, 8 minute exposure, PGT substrate, read-out: IC50, EGFR TK inhibition): 0.23 µM
- more potent EGFR TK inhibitor than JDF12 (fold) (EGFR tyrosine kinase; JDF04R vs JDF12, ELISA IC50): 2.7 fold
- inhibition of EGFR TK [2]: ~100%
- DNA damage (tail moment) (DU145 cells; DU145 cells, 2 h exposure): did not demonstrate any DNA damaging activity
- IC50 (DU145): 151 ± 17 µM
- IC50 (LNCaP-WT): 178 ± 13.3 µM
- IC50 (LNCaP-EGFR): 119 ± 4.1 µM
- IC50 (LNCaP-ErbB2): 111 ± 18.1 µM

Compound: NC(=O)c1ncn2c(=O)n(CCCl)nnc12 [MTZ, 8-carbamoyl-3-(2-chloroethyl)imidazo[5,1-d]-1,2,3,5-tetrazin-4(3H)-one]
- EGFR TK-inhibitory activity (EGFR tyrosine kinase; ELISA, FIG. 1): negligible
- level of DNA damage, fold higher than JDF12 (DU145 cells): approximately 2 fold
- Vital Sign, Day 1 [1]: Normal
- Vital Sign, Day 3 [1]: Normal
- Vital Sign, Day 6 [1, 3]: Weight loss > 20% (1 mouse); also recorded: Death (1 mouse); also recorded: (BCS = 2)
- Vital Sign, Day 8 [1, 3]: (BCS = 2); also recorded: Weight loss > 20% (1 mouse)
- Vital Sign, Day 10 [1, 3]: (BCS = 2); also recorded: Weight loss > 20% (1 mouse)
- Vital Sign, Day 16 [1, 3]: (BCS = 2); also recorded: All Mice Thin; also recorded: Death (3 mice)
- toxicity at 100 mg/kg ([1]; CD-1 mice, 100 mg/kg): toxic at this dose
- overall body condition score (BCS) ([1]; CD-1 mice, 100 mg/kg, 6-10 days after initiating treatment): 2
- IC50 (DU145): 179 ± 21.1 µM
- IC50 (LNCaP-WT): 150 ± 7.92 µM
- IC50 (LNCaP-EGFR): 176 ± 6.51 µM
- IC50 (LNCaP-ErbB2): 142 ± 8.93 µM
